Measured values published in PubChem BioAssay AID2305 (GlaxoSmithKline (GSK), 2010).

system: P. falciparum 3D7 growth, pLDH absorbance; assay: blood-stage malaria parasite growth potency – strain 3D7, dose response (AID 2305)

| Structure (SMILES) | IC50 [nM] |
| --- | --- |
| Cn1c2c(c3ccccc31)CN(CCC1(c3ccc(Cl)c(Cl)c3)CN(C(=O)Cc3ccccc3)CCO1)CC2 (centres undefined) | 360 |
| COc1ccc2nc(N(CCCn3ccnc3)C(=O)C=Cc3cccs3)sc2c1 | 1050 |
| O=C(Nc1ccc(N2CCCCC2)c(Cl)c1)c1ncn[nH]1 | 450 |
| CC(C)CCC[C@@H]([C@@H](CC1CCCCC1)C(=O)N[C@@H](CCCCNC(=O)OCc1ccccc1)C(=O)Nc1nccs1)N(O)C=O | 460 |
| Cc1cc(NN=Cc2cccc([N+](=O)[O-])c2)c2ccc(F)cc2n1 | 690 |
| Cc1ccccc1C1CCN(C2CCC(NC(=O)/C=C/c3cccc(F)c3F)CC2)CC1 (centres undefined) | 1150 |
| Cc1ccc(-c2nc3ccc(C(=O)NC4CCN(Cc5ccccc5)CC4)cc3[nH]2)cc1 | 740 |
| O=C(C=Cc1ccc(Cl)c(Cl)c1)NCCCCCN1CCCC(CCCNC(=O)c2ccc3c(c2)OCO3)C1 (centres undefined) | 1220 |
| O=C(CCCCCNC(=O)c1ccc(O)c(-c2ccc(Cl)c(Cl)c2)c1)NCc1cccc2ccccc12 | 760 |
| Cc1cc(C(=O)Nc2ccc3c(c2)CCN3C2CCN(Cc3cccc(F)c3F)C2)no1 (centres undefined) | 580 |
| CCOc1cc(C(=O)Nc2ccc(-c3nc4ccccc4[nH]3)cc2)cc(OCC)c1OCC | 230 |
| CC(Cc1ccc(NC(=O)c2ccc(CNCCCCc3ccccc3)cc2)cc1)NCCc1cccc(Cl)c1 (centres undefined) | 330 |
| CCn1c(-c2nonc2N)nc2c(-c3cc4ccccc4s3)ncc(C(=O)N3CCC(N)C3)c21 (centres undefined) | 870 |
| Cc1ccc(NC(=O)Nc2ccc(Cl)cc2)cc1-c1ccc(C(=O)Nc2ccncc2)cc1 | 530 |
| CC1(C)N=C(N)N=C(N)N1OCc1cccc(C#N)c1 | 10 |
| Cc1c(Cl)ccc2c(C(=O)Nc3ccncc3)cc(-c3cccnc3)nc12 | 780 |
| CC(=NNc1nc2ccccc2s1)c1ccccn1 | 1120 |
| CC(=O)N(Cc1nc(-c2cc(Cl)c(Cl)s2)cs1)c1c(C)cccc1C | 330 |
| CCN(CC)CCNc1ccnc2c3ccccc3n(C)c12 | 240 |
| O=C(/C=C/c1ccc(Cl)c(Cl)c1)N1CCC(CCCN2CCC(c3c[nH]c4ccc(O)cc34)CC2)CC1 | 690 |
| O=C(Nc1nc(-c2ccccn2)cc2ccccc12)c1cccc(Cl)c1 | 750 |
| CS(=O)(=O)NCCCNCc1cccc(-c2cccc(-c3nc4ccc(F)cc4[nH]3)c2)c1 | 940 |
| Cc1cnc(N2CCN(CCCN3CCCC3)CC2)nc1Oc1ccc(-n2ccnc2)cc1 | 900 |
| Cc1ccc(-c2nnc(Nc3ccc(C(=O)N4CCCCC4)cc3)c3ccccc23)cc1S(=O)(=O)NCC1CCCO1 (centres undefined) | 710 |
| COc1ccc(CCNCCCCCCNCCc2ccc(Cl)c3ccccc23)cc1OC | 580 |

| Structure (SMILES) | IC50 [nM] |
| --- | --- |
| CC(C)c1ccc(-c2noc(SCC(=O)N3CCCCC3C)n2)cc1 (centres undefined) | 1670 |
| O=C(NCCN1CCCCC1)c1cccc(Nc2nccc(Nc3ccc(Oc4ccccc4)cc3)n2)c1 | 270 |
| NCCCNc1nccc(N2CCc3ncnc(Nc4ccc(OCc5cccc(F)c5)c(Cl)c4)c3C2)n1 | 830 |
| COc1ccc(-c2cnc3ccc(NCCCO)nn23)cc1OC | 670 |
| N#Cc1ccc2c(c1)CCN(CCC1CCC(Nc3ncnc4ccccc34)CC1)C2 (centres undefined) | 630 |
| CCOc1ccc2c(NN=Cc3cccc(Cl)c3)cc(C)nc2c1 | 860 |
| COc1ccc2ncc(Cl)c([C@H](O)CN3CCC(NCc4cc5c(cn4)OCCO5)CC3)c2c1 | 120 |
| CN1CCN(c2ccnc3ccc(NC(=O)Nc4ccccc4Br)cc23)CC1 | 370 |
| Nc1ncc(-c2ccccc2)cc1-c1cccc2ncccc12 | 270 |
| COc1ccc2c(NN=Cc3ccccc3F)ccnc2c1 | 210 |
| CCCCCCNC(=O)C1Cc2c([nH]c3cc(Cl)ccc23)C2(CCN(Cc3ccccc3)CC2)N1 (centres undefined) | 900 |
| CCn1nc(C(=O)NC2CCOc3ccccc32)c2ccccc2c1=O (centres undefined) | 1230 |
| Ic1cc(Nc2ncnc3ccsc23)ccc1OCc1ccccc1 | 770 |
| CC(=O)Nc1ccc2[nH]cc(C3CCN(CCC4CCN(C(=O)/C=C/c5ccc(Cl)c(Cl)c5)CC4)CC3)c2c1 | 780 |
| Cc1cc(NN=Cc2ccc(Cl)cc2)c2ccccc2n1 | 790 |
| COc1cc(NC(=O)c2ccc(-c3ccccc3)cc2)ccc1OCCCN1CCC(c2ccccc2)CC1 | 750 |
| COc1ccc(CN(C)Cc2cc(C(C)C)c(C)cc2O)cc1F | 650 |
| CN1CCCC(CN2CCN(Cc3cccc(-c4cccc(-c5nc6ccccc6[nH]5)c4)c3)CC2)C1 (centres undefined) | 140 |
| COc1ccc(F)cc1-c1ccccc1CNC(=O)c1cnn(-c2ccc([N+](=O)[O-])cc2)c1C(F)(F)F | 600 |
| O=C(NCCN1Cc2ccccc2C1=O)c1ccc(Oc2ccc(C(=O)NCCN3Cc4ccccc4C3=O)cc2)cc1 | 360 |
| CC1CCCCN1CCCNC(=O)c1cccc(-c2cc3cc(Cl)c(Cl)cc3[nH]2)c1 (centres undefined) | 880 |
| O=C(Nc1ccnc(-c2cccnc2)n1)c1cc(C(F)(F)F)cc(C(F)(F)F)c1 | 820 |
| O=C(CSc1nc(-c2ccccc2Cl)ns1)Nc1cccc(F)c1 | 1110 |
| Cc1[nH]c(C)c(-c2cccc(-c3ccc(OC(F)(F)F)cc3)c2)c(=O)c1Br | 410 |
| O=C(Cn1c(CCc2cccc(F)c2F)cc(=O)c2ccccc21)N(CCN1CCCCC1)Cc1ccc(-c2ccc(C(F)(F)F)cc2)cc1 | 760 |

| Structure (SMILES) | IC50 [nM] |
| --- | --- |
| CCC[C@@H]([C@@H](CC1CCCCC1)C(=O)N[C@@H](CCOC(=O)NCC)C(=O)Nc1nccs1)N(O)C=O | 80 |
| CN1CCN(c2ccnc3cc4c(cc23)N(Cc2ccccc2)CC4)CC1 | 1140 |
| Oc1cc(Nc2ccnc3ccc(I)cc23)c(F)cc1Cl | 1230 |
| CC(C)(C)c1ccc(-c2csc(NC(=O)CC(c3ccccc3)c3ccccc3)n2)cc1 | 1150 |
| CCc1sc(-c2cc(Cl)ccc2OC)nc1C(=O)NCCN1CCCCC1 | 940 |
| O=C1CCCN1CCCNCc1cccc(-c2ccc(-c3nc4ccc(C(F)(F)F)cc4[nH]3)cc2)c1 | 300 |
| COc1cc(C(=O)Nc2cccc(-c3cn4cccc(C)c4n3)c2)cc(OC)c1OC | 700 |
| CC(C)(C)C(=O)Nc1ccccc1Oc1ccc(Cl)cc1 | 10 |
| CC(C)(C)c1cc(NC2CC2)nc(-c2ccccn2)n1 | 720 |
| COc1ccccc1N1CCN(CCCCNC(=O)c2ccc(NC(=O)c3ccc4ccccc4c3)cc2)CC1 | 800 |
| Cn1c(=N)cc(-c2ccc(Br)cc2)c2c(=O)[nH]c(N)nc21 | 1130 |
| C=CCc1cccc(CN2CCC(c3cc(=O)[nH]c(-c4ccccn4)n3)CC2)c1O | 1100 |
| O=C(Nc1cccc(C(F)(F)F)c1)NC1CCN(c2ccnc3ccccc23)CC1 | 990 |
| O=C(/C=C/c1ccc(Cl)c(Cl)c1)N(Cc1ccccc1)C1CCC(CN2CCC(c3c[nH]c4ccccc34)CC2)CC1 (centres undefined) | 210 |
| COc1cc(NCC(O)CNc2cc(OC)c3ccccc3n2)nc2ccccc12 | 110 |
| Cc1cc(NN=Cc2ccccc2F)c2cc(C(F)(F)F)ccc2n1 | 430 |
| O=C(O)c1ccc(NC(=O)C2CC(=O)N(Cc3ccc(Cl)cc3)C(=Nc3ccc(Cl)cc3)S2)cc1 (centres undefined) | 530 |
| CO/C(=C\C=C\c1cc2cc(Cl)c(Cl)cc2[nH]1)C(=O)NCCCN1CCN(c2cccc(O)c2)CC1 | 580 |
| CC(C)CC(=O)N1CCNC[C@@H]1C(=O)NC1CC1 | 1090 |
| CCN(CC)C(=NCCCCCCN=C(/N=C(/N)Nc1ccc(Br)cc1)N(CC)CC)/N=C(/N)Nc1ccc(Br)cc1 | 380 |
| CCc1ccc(S(=O)(=O)Nc2ccc(CCN3CCC(N4CCCCC4)CC3)cc2)cc1 | 990 |
| Cc1c(F)cc(C(=O)NC2CC2)cc1-c1ccc2c(c1)c(C)nn2S(=O)(=O)c1cccs1 | 940 |
| Cc1ccc(Oc2ncccc2C(=O)Nc2cccc3cccnc23)c(C)c1 | 220 |
| COc1ccc(Cc2nc(N=C(N)Nc3ccccc3)ccc2OC)cc1 | 850 |
| CN(C)S(=O)(=O)c1ccc(Nc2nc(NCCC3C=NC=N3)nc3cc[nH]c(=O)c23)cc1 (centres undefined) | 930 |

| Structure (SMILES) | IC50 [nM] |
| --- | --- |
| CCCCCCCn1c2c(c(=N)c3c1CCC3)CCCC2 | 100 |
| Cc1cc(N[C@@H](CC(C)C)C(=O)NCCc2ccccc2)nc(NCCc2ccc(F)cc2)n1 | 770 |
| CC(C)(C)c1ccc(C(=O)NC2CCC(CCN3CCc4ccc(S(C)(=O)=O)cc4CC3)CC2)cc1C(F)(F)F (centres undefined) | 1220 |
| CS(=O)(=O)Cc1ccc(Nc2nccc(-c3c(-c4cccc(NC(=O)c5c(F)cccc5F)c4)nn4ncccc34)n2)cc1 | 160 |
| CCc1ccc(NC(=O)c2cccc(CN3CCCN(CC4CCCCC4)CC3)c2)cc1 | 950 |
| Cc1ccc(Oc2c(-c3ccccc3CN3CCCC3CN(C)C)cnn(C)c2=O)cn1 (centres undefined) | 1160 |
| CCCCCOc1ccc(CC(C)NCC(O)c2cccc(Cl)c2)cc1 (centres undefined) | 650 |
| Cc1cccn2c(=O)c3cc(C(=O)NCCc4ccccc4)c(=N)n(CCCOC(C)C)c3nc12 | 480 |
| Cn1nccc1C(=O)NCCNCc1cccc(-c2ccc(-c3nc4ccccc4[nH]3)cc2)c1 | 470 |
| CN(Cc1c(Cl)cnn1C)S(=O)(=O)c1ccc2ccccc2c1 | 1040 |
| Cc1cc2nc(NC3=NC4(c5ccccn5)N=C(Nc5nc6cc(C)c(C)cc6[nH]5)NC4(c4ccccn4)N3)[nH]c2cc1C (centres undefined) | 680 |
| CCOc1ccc2nc(C)cc(NN=Cc3cccnc3)c2c1 | 150 |
| COc1ccc(C2c3ccccc3-c3nc(N)nc(N)c3C2C)cc1 (centres undefined) | 240 |
| COc1cc2nc(N3CCC(CNC(=O)c4ccc(-c5ccc(C#N)cc5)cc4)CC3)nc(N)c2cc1OC | 800 |
| C=CCOc1ccc(C(=O)Nc2nonc2-c2ccc(OC)c(OC)c2)cc1 | 640 |
| CCOc1cc(C(=O)N[C@@H](Cc2ccccc2)[C@H](O)CNC(C)(C)c2cccc(OC)c2)cc(N2CCCS2(=O)=O)c1 | 220 |
| COc1ccc2nccc([C@@H](O)CN3CCC(NCCOc4ccncc4)CC3)c2c1 | 690 |
| O=C(Nc1ccc2c(c1)CCN2C1CCN(Cc2cc(F)cc(F)c2F)C1)c1ccco1 (centres undefined) | 590 |
| CN(C(=O)/C=C/c1cc(C(F)(F)F)ccc1F)C1CCN(CCCCCNC(=O)/C=C/c2ccc(Cl)c(Cl)c2)CC1 | 290 |
| O=C(NCCCN(Cc1ccc(F)cc1)c1ccccn1)C(c1cc2ccccc2o1)N1CCN(C(c2ccccc2)c2ccccc2)CC1 (centres undefined) | 840 |
| COc1ccc(Br)cc1/C=C/C(=O)Nc1cccc(C2CCCN(C)C2)c1 (centres undefined) | 890 |
| COc1ccc(-c2ccc(NC(=O)c3cccc(C#N)c3)cc2)cc1CN1CCNCC1 | 730 |
| C[C@@H]([C@@H](CCCCc1ccccc1)C(=O)N[C@H](C(=O)Nc1cccnc1)C(C)(C)C)N(O)C=O | 930 |
| O=C(Nc1ccccc1)N(Cc1ccc(-c2cccc(CNC3CCCC3)c2)cc1)C1CCN(Cc2ccccc2)CC1 | 430 |
